The IC50 is the concentration needed to halve the response being measured.

Data set [1] is described as follows: Slurry experiment on stability of the crystalline form (water suspension, XRPD). The data set is classed as physicochemical. The note with it: for stability of the anhydrous state: during the measurement by XRPD (30 minutes); for polymorphic change after slurry in water: suspended in water for up to seven days, XRPD of the filtration residue. The method, then: In this study, a suspension of the monohydrate of Example 48 was suspended in water for up to seven days. After the treatment, the mixtures were filtered and an x-ray powder diffraction of the filtration residue was measured.
In this study, a suspension of the monohydrate of Example 75 was suspended in water for up to seven days. After the treatment, the mixtures were filtered and an x-ray powder diffraction of the filtration residue was measured.

The next data set addresses T1, 11β-HSD1 (Homo sapiens, UniProt P28845).
T1 construct: detecting cortisol generated from cortisterone by human liver microsomes
Kind of data set: biochemical. The settings on record: read-out: Average % control inhibition at 100 nM.

The target in the next data set is CYP3A4 (Homo sapiens, UniProt P08684). As to the kind of experiment: Biological Test Example 6: CYP3A4 Inhibition ([N-methyl-14C]-Erythromycin N-demethylation). The settings on record: recombinant CYP3A4, probe [N-methyl-14C]-Erythromycin (50 μM). It is filed as in vitro ADME.

SMILES strings stand for the structures.

T1 sequence (P28845 whole entry): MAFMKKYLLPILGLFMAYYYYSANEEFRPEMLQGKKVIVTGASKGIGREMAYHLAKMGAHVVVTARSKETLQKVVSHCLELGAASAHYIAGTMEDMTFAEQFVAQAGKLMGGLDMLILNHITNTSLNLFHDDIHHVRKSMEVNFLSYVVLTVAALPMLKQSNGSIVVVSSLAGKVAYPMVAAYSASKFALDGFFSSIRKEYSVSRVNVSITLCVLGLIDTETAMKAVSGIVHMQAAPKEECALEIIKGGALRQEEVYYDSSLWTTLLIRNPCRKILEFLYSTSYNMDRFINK
Chain of CYP3A4 (P08684 whole entry): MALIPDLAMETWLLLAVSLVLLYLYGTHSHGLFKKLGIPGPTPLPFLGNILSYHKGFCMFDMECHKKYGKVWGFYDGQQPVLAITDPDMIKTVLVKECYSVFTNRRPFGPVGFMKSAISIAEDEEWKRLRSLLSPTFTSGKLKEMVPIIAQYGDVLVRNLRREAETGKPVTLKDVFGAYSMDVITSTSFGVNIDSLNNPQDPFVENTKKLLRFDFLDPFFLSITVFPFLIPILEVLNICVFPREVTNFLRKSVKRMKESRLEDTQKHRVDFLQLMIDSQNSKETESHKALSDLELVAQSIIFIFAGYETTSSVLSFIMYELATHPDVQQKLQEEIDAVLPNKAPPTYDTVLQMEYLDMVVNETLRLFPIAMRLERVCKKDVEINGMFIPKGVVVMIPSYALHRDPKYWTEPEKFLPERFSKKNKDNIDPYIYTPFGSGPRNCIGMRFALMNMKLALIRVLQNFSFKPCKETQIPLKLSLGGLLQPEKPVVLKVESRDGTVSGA
Procedure for 11β-HSD1: Briefly, compounds were incubated for 1 hour at 37° C. in Tris buffer (20 mM tris, 5 mM EDTA, pH 6.0) containing NADPH (200 μM) and cortisone (80 nM). Cortisol generated in the reaction was then detected with a competitive immunoassay, involving two HTRF conjugates: cortisol linked to XL665 and anti-cortisol antibody labeled with Europium cryptate. The incubation period for detection reaction was typically 2 hours. […] The ratio of the two emission signals was then calculated (Em665*10000/Em615). […] Each assay also contained a calibration curve with cortisol to transform the fluorescent data into cortisol concentrations. Percent inhibition of each compound was determined relative to the carbenoxolone signal.

On to `C[C@@H](c1ccc(-c2ccn(C3CC3)c(=O)c2)cc1)N1CC[C@](CC(C)(C)O)(c2ccccc2)OC1=O` [anhydrous form of Example 75, 3-{(S)-1-[4-(1-Cyclopropyl-2-oxo-1,2-dihydro-pyridin-4-yl)-phenyl]-ethyl}-(S)-6-(2-hydroxy-2-methyl-propyl)-6-phenyl-[1,3]oxazinan-2-one], for which, in data set [1], the “stability of the anhydrous state” value was “did not remain in the anhydrous state”.

Regarding `CC(CO)Cn1ccc(-c2ccc([C@H](C)N3CC[C@](CC(C)(C)O)(c4ccccc4)OC3=O)cc2)cc1=O` (stereo partly drawn) [Example 82, (S)-6-(2-Hydroxy-2-methyl-propyl)-3-((S)-1-{4-[1-(3-hydroxy-2-methyl-propyl)-2-oxo-1,2-dihydro-pyridin-4-yl]-phenyl}-ethyl)-6-phenyl-[1,3]oxazinan-2-one], the percent inhibition at 0.1 µM at 11β-HSD1 is -12%.

Turning to `C[C@@H](c1ccc(-c2ccn(CC(C)(C)O)c(=O)c2)cc1)N1CC[C@](CC(C)(C)O)(c2ccccc2)OC1=O` [Example 80, (S)-6-(2-Hydroxy-2-methyl-propyl)-3-((S)-1-{4-[1-(2-hydroxy-2-methyl-propyl)-2-oxo-1,2-dihydro-pyridin-4-yl]-phenyl}-ethyl)-6-phenyl-[1,3]oxazinan-2-one], the percent inhibition at 0.1 µM on 11β-HSD1 is 37%.

As for `COC(C)(C)Cn1ccc(-c2ccc([C@H](C)N3CC[C@](CC(C)(C)O)(c4ccccc4)OC3=O)cc2)cc1=O` [Example 83, (S)-6-(2-Hydroxy-2-methyl-propyl)-3-(1-{4-[1-(2-methoxy-2-methyl-propyl)-2-oxo-1,2-dihydro-pyridin-4-yl]-phenyl}-ethyl)-6-phenyl-[1,3]oxazinan-2-one], the IC50 on CYP3A4 was above 50 µM. In addition, the percent inhibition at 0.1 µM at 11β-HSD1 was determined as 54%.

In the case of `COCC(C)Cn1ccc(-c2ccc([C@H](C)N3CC[C@](CC(C)(C)O)(c4ccccc4)OC3=O)cc2)cc1=O` (stereo partly drawn) [Example 81, (S)-6-(2-Hydroxy-2-methyl-propyl)-3-((S)-1-{4-[1-(3-methoxy-2-methyl-propyl)-2-oxo-1,2-dihydro-pyridin-4-yl]-phenyl}-ethyl)-6-phenyl-[1,3]oxazinan-2-one], the percent inhibition at 0.1 µM on 11β-HSD1 turned out to be 11%.

Consider `C[C@@H](c1ccc(-c2ccn(C)c(=O)c2)cc1)N1CC[C@](CC(C)(C)O)(c2ccccc2)OC1=O` [monohydrate of Example 48, (S)-6-(2-hydroxy-2-methylpropyl)-3-((S)-1-(4-(1-methyl-2-oxo-1,2-dihydropyridin-4-yl)phenyl)ethyl)-6-phenyl-1,3-oxazinan-2-one], for which the “polymorphic change after slurry in water” value in data set [1] was “No polymorphic change was observed”.

Turning to `C[C@@H](c1ccc(-c2ccn(C3CC3)c(=O)c2)cc1)N1CC[C@](CC(C)(C)O)(c2ccccc2)OC1=O` [monohydrate of Example 75, 3-{(S)-1-[4-(1-Cyclopropyl-2-oxo-1,2-dihydro-pyridin-4-yl)-phenyl]-ethyl}-(S)-6-(2-hydroxy-2-methyl-propyl)-6-phenyl-[1,3]oxazinan-2-one], in data set [1], the “polymorphic change after slurry in water” value is listed as “No polymorphic change was observed”.

As to `C[C@@H](c1ccc(-c2ccn(C)c(=O)c2)cc1)N1CC[C@](CC(C)(C)O)(c2ccccc2)OC1=O` [anhydrous form of Example 48, (S)-6-(2-hydroxy-2-methylpropyl)-3-((S)-1-(4-(1-methyl-2-oxo-1,2-dihydropyridin-4-yl)phenyl)ethyl)-6-phenyl-1,3-oxazinan-2-one], in data set [1], the “stability of the anhydrous state” value was “did not remain in the anhydrous state”.

Take `C[C@@H](c1ccc(-c2cc(=O)n(C)cc2F)cc1)N1CC[C@](CC(C)(C)O)(c2ccccc2)OC1=O` [Example 79, 3-{(S)-1-[4-(5-Fluoro-1-methyl-2-oxo-1,2-dihydro-pyridin-4-yl)-phenyl]-ethyl}-(S)-6-(2-hydroxy-2-methyl-propyl)-6-phenyl-[1,3]oxazinan-2-one]: the percent inhibition at 0.1 µM on 11β-HSD1 was 15%.

As to `C[C@@H](c1ccc(-c2ccn(CC(C)(C)CO)c(=O)c2)cc1)N1CC[C@](CC(C)(C)O)(c2ccccc2)OC1=O` [Example 90, 3-((S)-1-{4-[1-(3-Hydroxy-2,2-dimethyl-propyl)-2-oxo-1,2-dihydro-pyridin-4-yl]-phenyl}-ethyl)-(S)-6-(2-hydroxy-2-methyl-propyl)-6-phenyl-[1,3]oxazinan-2-one], the percent inhibition at 0.1 µM at 11β-HSD1 worked out at 4%.

(Values after patent publication US20100331320A1, “CYCLIC INHIBITORS OF 11BETA-HYDROXYSTEROID DEHYDROGENASE 1” (Vitae Pharmaceuticals, Inc., priority 2009, published 2010).)
